SMILES strings stand for the structures.

For this experiment, the system named is HCMV AD 169 RV-HG. Description: HCMV fluorescence-reduction test (GFP-RA). Type of experiment: cell-based, human cytomegalovirus. The conditions noted are these: Human betaherpesvirus 5, AD169, NHDF, 168 h, read-out: EC50 (GFP-RA). From the text: The in vitro effects of the compositions according to the present invention on the replication of the HCMV (human cytomegalovirus) can be seen in the following antiviral assay:
The solution from Example 8 is used without further dilution in the test. The composition from Example 6A is used as a 50-millimolar (mM) solution in dimethyl sulphoxide (DMSO). Ganciclovir®, Foscarnet® or Cidofovir® can be used as reference compositions. One day before the beginning of the test, 1.5×10^4 human foreskin fibroblasts (NHDF cells)/well are seeded in 200 μl of cell culture medium in Wells B2-G11 of 96-well plates (black with transparent floor). The wells along the edges of each 96-well plate are filled with 200 μl of medium only in order to prevent edge effects. […] The virus used is a recombinant HCMV which has integrated an expression cassette for green fluorescence protein (GFP) in the virus genome (HCMV AD 169 RV-HG [E. M. Borst, K. Wagner, A. Binz, B. Sodeik, and M. Messerle, 2008, J. Virol. 82:2065-2078.]). […] The GFP intensity of each well in a 96-well plate is then determined using a fluorescence scanner (FluoBox; Bayer Technology Services GmbH; filter settings: GFP, Ex 480 nm, Em 520 nm). The measured values thus obtained can be used to determine the EC50 of an anti-HCMV: […]

As to `COc1cccc(N2CCN(C3=Nc4c(F)cccc4[C@H](CC(=O)O)N3c3cc(C(F)(F)F)ccc3OC)CC2)c1` [Example 6A, (S)-{8-fluoro-2-[4-(3-methoxyphenyl)piperazine-1-yl]-3-(2-methoxy-5-trifluoromethylphenyl)-3,4-dihydroquinazoline-4-yl}acetic acid], the half-maximal effective concentration (EC50) came out at 0.0022 ± 0.0002 µM.

For the molecule `Nc1nc(O)c2ncn(COC(CO)CO)c2n1` [Ganciclovir], the half-maximal effective concentration (EC50) came to 2.5 ± 0.4 µM.

The record behind these values is patent US10603384B2, “Pharmaceutical composition containing an antivirally active dihydroquinazoline derivative” (AICURIS GMBH & CO. KG, priority 2012, dated 2020).
